Read-outs that look alike come from different tables or passages of the source.
Tests used:
control HeLa cells = test: Cell viability assay (CellTiter Glo), control cells; type: cell-based, human; conditions: 24 h, mean ± SD
Procedure: (§1) HeLa human cervical cancer cells were from American Type Culture Collection (ATCC, Manassas, VA). Control, TMEM97 KO, PGRMC1 KO and TMEM97/PGRMC1 double KO HeLa cell lines were grown in MEM containing 10% fetal bovine serum, 2 mM L-glutamine, 1% non-essential amino acids, 100 units/ml penicillin, and 100 μg/ml streptomycin. All the cell lines were maintained at 37 °C in a humidified incubator with a 5% CO2/95% air atmosphere.

TMEM97 KO HeLa cells = test: Cell viability assay (CellTiter Glo), TMEM97 KO cells; type: cell-based, human; conditions: 24 h, mean ± SD
Procedure: as §1

[1] = test system: TMEM97/PGRMC1 double KO HeLa cells; test: Cell viability assay (CellTiter Glo), double KO cells; type: cell-based, human; conditions: 24 h, mean ± SD
Procedure: as §1

PGRMC1 KO HeLa cells = test: Cell viability assay (CellTiter Glo), PGRMC1 KO cells; type: cell-based, human; conditions: 24 h, mean ± SD
Procedure: as §1

[2] = test system: control, TMEM97 KO, PGRMC1 KO and double KO HeLa cells; test: Cell viability assay across control and knockout HeLa cell lines (results in words); conditions: for block of sigma-2 ligand-induced cytotoxicity: 30 µM, 1 h pre-incubation, then with sigma-2 agonists 24 h, all four cell lines; for cytotoxicity in control and knockout cells: TMEM97 KO, PGRMC1 KO and double KO HeLa cells
Procedure: In order to study whether sigma-2 ligand-induced cytotoxicity is mediated by sigma-1 receptors, we used a sigma-1 agonist, (+)-pentazocine, or sigma-1 antagonist, NE-100, to block the sigma-1 binding site and then examined sigma-2 ligand-induced cytotoxicity. […] We pre-incubated cells with vehicle (cell culture media), 30 µM (+)-pentazocine, or 30 µM NE-100 for 1 h, then treated cells with sigma-2 agonists in the absence or presence of (+)-pentazocine or NE-100 for 24 h.
The cytotoxicity of compounds was determined using the CellTiter Glo® chemiluminescent assay (Promega, Madison, WI) that measures ATP. Cells were plated in black wall clear bottom 96-well plates at 5000 cells per well 24 h before treatment. Each compound was dissolved in DMSO and serially diluted in culture medium to acquire the desired concentrations. The final concentration of DMSO in the cell culture medium was no more than 1.0%. After 24 h treatment with the various compounds, 25 μl of the CellTiter Glo® Solution Reagent was added to each well. Then plates were immediately read on a Perkin Elmer Enspire® Multimode Plate Reader. Luminescence detected for each well was normalized to the untreated control and data was calculated as percent viability. The EC50, defined as the concentration of the sigma ligand required to inhibit cell proliferation by 50% relative to untreated cells, was determined from the dose–response curves generated using GraphPad Prism version 6 (GraphPad Software, Inc. La Jolla, CA).

sigma-1 receptors = biological target: T1, sigma-1 receptors (Cavia porcellus, UniProt Q60492); test: Sigma-1 receptor competition binding assay with [3H](+)-pentazocine; design: species or system guinea pig
T1 construct: 100 μg guinea pig brain membrane homogenates; from tissue; host or cells: guinea pig brain membrane homogenates
Procedure: (§2) The sigma-1 and sigma-2 receptor binding affinities of sigma-2 ligands were determined using a competition assay as previously described[32],[33]. […] The concentrations of each non-radioactive compound ranged from 0.1 to 10 μM. The non-specific binding was determined in the presence of 10 μM haloperidol. […] The concentrations of each non-radioactive compound ranged from 0.1 nM to 10 μM. 500 nM of (+)-pentazocine was added to mask the sigma-1 receptor binding site. The non-specific binding was determined in the presence 10 μM DTG.
(§3) After incubation, the bound ligands were filtrated with a M-24 Brandel filtration system (Brandel, Gaithersburg, MD, USA), collected on glass fiber papers (Whatman grade 934-AH, GE Healthcare Bio-Sciences, Pittsburgh, PA), and counted with a MicroBeta2 Microplate counter 2450 (Perkin Elmer, Boston, MA). […] Ki values were reported as mean ± SD from at least three independent experiments.

sigma-2 receptors [3] = biological target: T2, sigma-2 receptors (Rattus norvegicus, UniProt Q5U3Y7); test: Sigma-2 receptor competition binding assay with [3H]DTG; design: 60 μg Sprague Dawley rat liver membrane homogenates; from tissue; host or cells: Sprague Dawley rat liver membrane homogenates
T2 sequence (Q5U3Y7 1-176): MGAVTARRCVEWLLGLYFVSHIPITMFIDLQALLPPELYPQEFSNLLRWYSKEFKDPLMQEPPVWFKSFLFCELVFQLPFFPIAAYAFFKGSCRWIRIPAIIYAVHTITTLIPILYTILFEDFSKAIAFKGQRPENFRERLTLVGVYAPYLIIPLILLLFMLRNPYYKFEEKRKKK
Procedure: as §2, §3

[4] = test system: DTG residual binding site (RBS); test: DTG RBS competition binding assay, double KO cell membranes; design: species or system human; conditions: double KO HeLa cell membranes, 45 nM [3H]DTG, 500 nM (+)-pentazocine mask
Procedure: (§4) The binding affinities of sigma-2 ligands for the DTG RBS were determined using a competition assay as previously described[13],[33] with minor modification. For cell harvesting, TMEM97 KO or TMEM97/PGRMC1 double KO HeLa cells were scraped from culture dishes in ice-cold Phosphate-Buffered Saline (PBS) and collected by centrifugation. The cell pellets were immediately stored at −80 °C until use. For cell membrane homogenate preparation, the cell pellets were re-suspended in 10 mL ice-cold PBS, and homogenized using Wheaton overhead stirrer (120 Vac Overhead Stirrer, Millville, NJ, USA) at the speed of 2 for 30 sec. The cell homogenates were then centrifuged for 20 min at 31,000×g at 4 °C. After centrifugation, the supernatant was discarded and the pellets were re-suspended in 1 mL ice-cold PBS and stored at −80 °C freezer until use. […] 500 nM (+)-pentazocine was added to mask the sigma-1 receptor binding site. The non-specific binding was determined in the presence of 60 μM cold DTG.
as §3

[5] = test system: DTG residual binding site (RBS); test: DTG RBS competition binding assay, TMEM97 KO cell membranes; design: species or system human; conditions: TMEM97 KO HeLa cell membranes, 45 nM [3H]DTG, 500 nM (+)-pentazocine mask
Procedure: as §4, §3

[6] = test system: caspase-3 activation in control and knockout HeLa cells; test: Caspase-Glo 3/7 assay; type: cell-based, human; conditions: 24 h, TMEM97 KO and PGRMC1 KO cell lines
Procedure: HeLa cells were plated in white opaque 96-well plate at a cell density of 5000 cells per well for 24 h. […] Caspase-3/7 activity was measured by using the Caspase-Glo 3/7 Assay (Promega).

[7] = test system: control, TMEM97 KO, PGRMC1 KO and double KO HeLa cells; test: Internalization of SW120 (confocal imaging); type: cell-based, human; conditions: 100 nM, room temperature
Procedure: HeLa cells were plated on 35-mm-diameter glass-bottom dishes at 2 × 10^5 cells per dish and incubated for 24 h. Prior to imaging, media was removed and fresh media containing 100 nM SW120 was added to the dishes. SW120 uptake in the live cells at room temperature was imaged using an inverted confocal microscope (Leica STED 3× super-resolution microscope). Images were acquired at 25 s intervals using a ×10 objective lens (using an excitation wavelength of 488 nm, and a 505 to 540 nm bandpass filter). Five optical slices at 2-μm intervals were scanned using the Z-stack function of the Leica imaging software. The brightest optical slice out of the five Z-stack optical slices was chosen for fluorescent intensity analysis. Twenty cells were analyzed in each dish using Fiji, an open-source platform based on ImageJ[35]. The fluorescent intensity was calculated as an average of 60 cells from three independent experiments (mean ± SEM).

sigma-2 receptors [8] = biological target: T2, sigma-2 receptors; conditions: rat liver membranes, 500 nM (+)-pentazocine mask
Procedure: binding, the nonspecific binding was determined inthe presence of
was added to mask the sigma-1 receptor binding site and the
nonspecific binding was determined in the presence 10 μM DTG.
The Kd and Bmax values were determined by a nonlinear regression
analysis using GraphPad Prism software.
The Kd and Bmax values were
reported as mean ± SD in at least three independent experiments

[9] = biological target: DTG residual binding site (RBS); design: method as in PMID 30443021; conditions: double KO HeLa cell membranes; read-out: Kd for the [3H]DTG RBS, double KO cell membranes; cited from earlier work
[10] = biological target: DTG residual binding site (RBS); design: method as in PMID 30443021; conditions: TMEM97 KO HeLa cell membranes; read-out: Kd for the [3H]DTG RBS, TMEM97 KO cell membranes; cited from earlier work
[11] = guinea pig brain membranes, 5 nM [3H](+)-pentazocine, mean ± SD, read-out: Ki for sigma-1 receptors
[12] = rat liver membranes, 5 nM [3H]DTG, 500 nM (+)-pentazocine mask, mean ± SD, read-out: Ki for sigma-2 receptors

T1 sequence (Q60492 whole entry): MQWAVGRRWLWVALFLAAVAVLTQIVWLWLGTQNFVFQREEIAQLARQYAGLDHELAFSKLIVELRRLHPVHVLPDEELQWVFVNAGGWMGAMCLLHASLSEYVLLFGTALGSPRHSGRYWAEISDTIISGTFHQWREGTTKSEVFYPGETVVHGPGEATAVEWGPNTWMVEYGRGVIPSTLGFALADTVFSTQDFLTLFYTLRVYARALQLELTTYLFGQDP

SMILES	cytotoxicity in control and knockout cells [2]	Ki (sigma-1 receptors; [11])	EC50 (control HeLa cells; Homo sapiens)	EC50 (TMEM97 KO HeLa cells; Homo sapiens)	EC50 ([1]; Homo sapiens)	Ki (sigma-2 receptors [3]; [12])	EC50 (PGRMC1 KO HeLa cells; Homo sapiens)	Ki [4]	Ki [5]	other results
CC(C)=CCN1CC[C@]2(C)c3cc(O)ccc3C[C@H]1[C@H]2C [(+)-pentazocine]	did not exhibit cytotoxicity									EC50 (control HeLa cells): > 200 µM; EC50 (TMEM97 KO HeLa cells): > 200 µM; EC50 [1]: > 200 µM; EC50 (PGRMC1 KO HeLa cells): > 200 µM; block of sigma-2 ligand-induced cytotoxicity [2]: neither (+)-pentazocine nor NE-100 blocked sigma-2 ligand-induced cytotoxicity
COc1cc2c(cc1OC)CN(CCCCNC(=O)c1cc(C)ccc1OCCF)CC2 [ISO-1]	did not exhibit	0.0239 ± 0.0019 µM	> 200 µM	> 200 µM	> 200 µM	0.002 ± 0.0006 µM	> 200 µM			
CCCN(CCC)CCc1ccc(OC)c(OCCc2ccccc2)c1 [NE-100]	did not exhibit cytotoxicity									EC50 (control HeLa cells): > 200 µM; EC50 (TMEM97 KO HeLa cells): > 200 µM; EC50 [1]: > 200 µM; EC50 (PGRMC1 KO HeLa cells): > 200 µM; block of sigma-2 ligand-induced cytotoxicity [2]: neither (+)-pentazocine nor NE-100 blocked sigma-2 ligand-induced cytotoxicity
COc1cccc2c1CCCC2CCCN1CCN(C2CCCCC2)CC1 (stereo not drawn) [PB28, 1-Cyclohexyl-4-[3-(5-methoxy-1,2,3,4-tetrahydronaphthalen-1-yl)propyl]piperazine]			58.2 ± 5.9 µM	59.8 ± 10.7 µM	57.4 ± 6.9 µM	0.0011 ± 0.0003 µM	59.4 ± 8 µM	0.0052 µM	0.0087 µM	
COc1cc2c(cc1OC)CN(CCCCNC(=O)c1cc(C)ccc1OC)CC2 [RHM-1]	did not exhibit	1.93 ± 0.625 µM	> 200 µM	> 200 µM	> 200 µM		> 200 µM			
COc1cc2c(cc1OC)CN(CCCCNC(=O)c1cc(I)cc(OC)c1OC)CC2 [RHM-4]		3.61 ± 0.533 µM	> 200 µM	> 200 µM	> 200 µM	0.0024 ± 0.0002 µM	> 200 µM	> 100 µM	> 100 µM	
COc1ccc(C)cc1NC(=O)OC1CC2CCCC(C1)N2CCCCCCCCCCN (stereo not drawn) [SW43]		0.278 ± 0.065 µM	33.7 ± 8.6 µM	30.4 ± 3.4 µM	32.8 ± 3.8 µM		33.2 ± 1.6 µM	8.62 µM	33.5 µM	Ki (sigma-2 receptors [3]): 0.0129 ± 0.0023 µM; EC50 of caspase-3/7 activation, comparison of cell lines [6]: identical
COc1ccc(C)cc1NC(=O)OC1CC2CCCC(C1)N2CCCCCCCCCCNc1ccc([N+](=O)[O-])c2nonc12 (stereo not drawn) [SW120]		1.94 ± 0.262 µM								Ki (sigma-2 receptors [3]): 0.001 ± 0.0003 µM; uptake signals at 60, 90 and 120 min, all cell lines [7]: essentially the same for all the cell lines; internalization rate in knockout cells compared to control cells ([7]; 25-sec intervals for 18 min, TMEM97 KO, PGRMC1 KO and double KO cells): reduced internalization rates
Fc1ccc(-n2cc(CCCCN3CCC4(CC3)OCc3ccccc34)c3ccccc32)cc1 [Siramesine, siramesine]			12.1 ± 1.7 µM	10.3 ± 1.49 µM	10 ± 1.3 µM		10.7 ± 0.7 µM	0.0497 µM	0.115 µM	Ki (sigma-1 receptors): 0.003 ± 0.0005 µM
Cc1ccccc1NC(=N)Nc1ccccc1C [[^3H]DTG, 1,3-Di-o-tolylguanidine]										Bmax of [3H]DTG (sigma-2 receptors [8]): 8958.0 ± 924.9 fmol/mg; Kd [9]: 0.403 µM; Kd [10]: 0.302 µM
